Our source for the EC50, inhibition and selectivity ratio values is ChEMBL document CHEMBL1629562, “Activity of indenoisoquinolines against African trypanosomes” (Antimicrob Agents Chemother, 2009).

Structures are written as SMILES. pEC50: −log10 of the molar value. Activity calls are given as the source filed them. No cut-off for these calls is given here.

The test system of series [1] is Trypanosoma brucei brucei. The series can be described thus: Trypanocidal activity against Trypanosoma brucei brucei 427 bloodstream forms infected in mouse L1210 cells after 48 hrs. In kind it is functional, organism-based. The settings on record: Trypanosoma brucei, 427, L1210, 48 h.
In series [2] the test system is Trypanosoma brucei brucei. The series can be described thus: Inhibition of Trypanosoma brucei brucei 427 bloodstream forms topoisomerase 1B in assessed as formation of enzyme-DNA cleavable complex at 5 uM.
Series [3] is described as follows: Therapeutic index, EC50 for mouse L1210 cells to EC50 for bloodstream-form Trypanosoma brucei brucei 427. In kind it is cell-based. The settings on record: read-out: Ratio EC50.
Series [4] relates to Trypanosoma brucei brucei. As to the kind of experiment: Inhibition of Trypanosoma brucei brucei 427 bloodstream form DNA synthesis assessed as inhibition of [3H]thymidine incorporation at 5 uM by liquid scintillation counting. In kind it is functional.
Series [5] concerns L1210. The series can be described thus: Cytotoxicity against mouse L1210 cells. In kind it is cell-based.
The test system of series [6] is Trypanosoma brucei brucei. As to the kind of experiment: Inhibition of Trypanosoma brucei brucei 427 bloodstream form DNA synthesis assessed as inhibition of [3H]thymidine incorporation at 10 uM by liquid scintillation counting. In kind it is functional.
The test system of series [7] is Trypanosoma brucei brucei. As to the kind of experiment: Inhibition of Trypanosoma brucei brucei 427 bloodstream forms topoisomerase 1B in assessed as formation of enzyme-DNA cleavable complex at 10 uM.
Series [8] deals with Trypanosoma brucei brucei. The series can be described thus: Antitrypanosomal activity against Trypanosoma brucei brucei 427 bloodstream forms infected in CD1 mouse assessed as reduction in parasite load at 50 mg/kg, ip after 4 days. In kind it is functional, organism-based. Also noted: dose 50 mg/kg.

`COc1cc2c3c(n(CCCN)c(=O)c2cc1OC)-c1cc2c(cc1C3=O)OCO2`: the pEC50 in series [1] is 6.92; in series [5] it was 6.38. The inhibition in series [2] came out at 4%. In addition, the selectivity ratio in series [3] turned out to be 2.1. Further, the inhibition at 5 µM in series [4] was 61%.

`NCCCn1c2c(c3ccccc3c1=O)C(=O)c1ccccc1-2` had a negative-log EC50 (pEC50) in series [1] of 6.42.

For `COC(=O)c1ccc2c(c1)C(=O)c1c-2n(CCCN)c(=O)c2cc(OC)c(OC)cc12`, the pEC50 in series [1] is 6.77; in series [5], 5.59. Also, in series [2], the inhibition was 12%. Moreover, in series [3], the selectivity ratio was determined as 2.5. For the same compound, the inhibition at 5 µM in series [4] came to 66%.

As to `COc1cc2c3c(n(CCCn4ccnc4)c(=O)c2cc1OC)-c1ccccc1C3=O`, the pEC50 in series [1] is 6.46.

`NCCCn1c2c(c3ccc([N+](=O)[O-])cc3c1=O)C(=O)c1cc3c(cc1-2)OCO3` had a pEC50 in series [1] of 7.30.

`NCCCn1c2c(c3ccccc3c1=O)C(=O)c1cc3c(cc1-2)OCO3` gave a negative logarithm of the EC50 (pEC50) in series [1] of 7.22.

Take `COc1ccc2c(c1)C(=O)c1c-2n(CCCN)c(=O)c2cc([N+](=O)[O-])ccc12`: the pEC50 in series [1] is 7.22.

The compound `O=C1c2ccccc2-c2c1c1ccccc1c(=O)n2CCCn1ccnc1` showed a pEC50 in series [1] of 5.38. Compared with the last compound, the pEC50 is 1.84 log units lower.

The compound `NCCCn1c2c(c3ccc([N+](=O)[O-])cc3c1=O)C(=O)c1ccccc1-2` gave a pEC50 in series [1] of 6.85.

With `COc1cc2c3c(n(CCCNCCNCCCN)c(=O)c2cc1OC)-c1cc2c(cc1C3=O)OCO2`, the negative logarithm of the EC50 (pEC50) is 6.19 in series [1] and 6.55 in series [5]. For the same compound, in series [2], the inhibition was 11%. Also, the selectivity ratio in series [3] came out at 4. In series [4], the inhibition at 5 µM was found to be 44%.

As to `NCCCn1c2c(c3ccc(Br)cc3c1=O)C(=O)c1cc3c(cc1-2)OCO3`, the pEC50 in series [1] is 6.80.

On to `COc1cc2c3c(n(CCCNCCCCN)c(=O)c2cc1OC)-c1cc2c(cc1C3=O)OCO2`, for which the negative logarithm of the EC50 (pEC50) is 6.00 in series [1] and 6.60 in series [5]. Moreover, the inhibition in series [2] is 7%. Also, the selectivity ratio in series [3] turned out to be 4.3. In addition, the inhibition at 5 µM in series [4] came to 56%.

Regarding `COc1cc2c3c(n(CCCNCCCNCCCNCCCN)c(=O)c2cc1OC)-c1cc2c(cc1C3=O)OCO2`, the negative logarithm of the EC50 (pEC50) in series [1] is 5.82; in series [5], 6.29. In addition, in series [2], the inhibition came out at 10%. For the same compound, the selectivity ratio in series [3] is 1.9. The inhibition at 5 µM in series [4] turned out to be 34%.

Turning to `COc1cc2c3c(n(CCCN)c(=O)c2cc1OC)-c1ccccc1C3=O`, the pEC50 was 6.89 in series [1] and 5.55 in series [5]. Besides, the inhibition in series [2] was 4%. The selectivity ratio in series [3] came out at 4.3. The inhibition at 5 µM in series [4] was 67%.

For the compound `COc1cc2c(cc1OC)-c1c(c3ccc([N+](=O)[O-])cc3c(=O)n1CCCN)C2=O`, in series [1], the negative logarithm of the EC50 (pEC50) is 6.85.

Turning to `COc1cc2c3c(n(CCCNCCCNCCN)c(=O)c2cc1OC)-c1cc2c(cc1C3=O)OCO2`, in series [1], the pEC50 is 6.01.

Consider `O=C1c2ccccc2-c2c1c1ccc([N+](=O)[O-])cc1c(=O)n2CCCn1ccnc1`, for which, in series [1], the pEC50 is 6.70.

Compound `NCCCn1c2c(c3ccc([N+](=O)[O-])cc3c1=O)C(=O)c1cc(F)ccc1-2` had a negative logarithm of the EC50 (pEC50) in series [1] of 7.10.

As to `CC[C@@]1(O)C(=O)OCc2c1cc1n(c2=O)Cc2cc3ccccc3nc2-1` [CAMPTOTHECIN], in series [6], the inhibition at 10 µM was found to be 27%. Besides, the inhibition in series [7] amounted to 61%.

As to `COc1ccc2c(c1)C(=O)c1c-2n(CCCN)c(=O)c2cc(OC)c(OC)cc12`, the pEC50 in series [1] was 7.30; in series [5], 5.37. Further, the inhibition in series [2] was 3%. Besides, the selectivity ratio in series [3] was 5.6. Further, in series [8], the inhibition result is “Active”. Besides, in series [4], the inhibition at 5 µM turned out to be 68%.

Turning to `COc1cc2c3c(n(CCCN)c(=O)c2cc1OC)-c1ccc(C#N)cc1C3=O`, the pEC50 is 6.46 in series [1] and 6.01 in series [5]. Further, in series [2], the inhibition was determined as 3%. In addition, in series [3], the selectivity ratio is 2.8. For the same compound, the inhibition at 5 µM in series [4] was 69%.

For `COc1cc2c3c(n(CCCn4ccnc4)c(=O)c2cc1OC)-c1cc2c(cc1C3=O)OCO2` [INDIMITECAN], in series [1], the negative-log EC50 (pEC50) is 7.22.

In series [1], `COc1ccc2c(c1)C(=O)c1c-2n(CCCN)c(=O)c2ccccc12` showed a negative logarithm of the EC50 (pEC50) of 6.85.
